# In PMC12631437, “Evaluation of the Activity of 4‑Quinolones against Multi-Life Stages of Plasmodium spp” (ACS Omega, 2025):
# Legend:
# [1] = system: Plasmodium falciparum 3D7 sensitive strain; test: SYBR Green growth assay, asexual blood stages, 3D7 sensitive strain; assay type: cell-based; details: Plasmodium falciparum, 3D7, 72 h, asexual blood stages, 3D7 sensitive strain, 72 h; read-out: IC50
# Method: (§1) Parasite strains SB1-A6, 7G8, V1/S, and HB3 were acquired from BEI-MR4, while the ATQ R1 strain, carrying a V259L gene mutation, was generated in-house. […] Parasitemia was monitored using Giemsa-stained blood smears.
# (§2) Bioassays were conducted with synchronized ring-stage parasites using sorbitol synchronization. Antimalarial compounds were evaluated in 96-well plates, and parasite growth was assessed using a SYBR Green-based fluorescence assay The assays were conducted when the parasite quantity reached at least 70% of the ring stage. Compounds were initially added at specific concentrations in the first wells, followed by serial dilution (1:2) ranging from 20 μM to 0.009 μM. Subsequently, a solution containing parasites in RPMI medium at a hematocrit of 2% was added to each well, and the parasites were then incubated for 72 h.
# (§3) The IC50 values were determined using concentration–response curves generated in GraphPad 8 software. Additionally, the resistance index was calculated by comparing IC50 values obtained for the sensitive 3D7 strain with those of the resistant strains.
# P. falciparum HB3 strain = test: SYBR Green growth assay, asexual blood stages, HB3 strain; assay type: cell-based, Plasmodium falciparum; details: Plasmodium falciparum; HB3 strain, 72 h; read-out: IC50
# Method: as §1, §2, §3
# [2] = system: P. falciparum V1/S strain; test: microbe, parasite or virus in culture; assay type: cell-based, Plasmodium falciparum; details: Plasmodium falciparum, 72 h
# Method: (§4) Healthy blood samples for parasite culture were obtained from voluntary donors (approved under protocol #28176720.9.0000.0011), processed to remove white blood cells, and stored at 2 °C–8 °C for up to 15 days. Parasite strains SB1-A6, 7G8, V1/S, and HB3 were acquired from BEI-MR4, while the ATQ R1 strain, carrying a V259L gene mutation, was generated in-house. Infected erythrocytes were cultured in RPMI 1640 medium supplemented with Hepes, sodium bicarbonate, glucose, Albumax, and gentamicin, […], and incubated in a 5% CO2, 5% O2, and 90% N2 gas mixture at 37 °C with daily medium changes. Parasitemia was monitored using Giemsa-stained blood smears.
# as §2
# (§5) To assess parasite growth, the culture medium was replaced with a lysis solution (Trisbase: 49.31%, EDTA: 30.00%, Saponin: 0.16%, Triton: 0.02%) containing the fluorescent dye SYBR Green (Sigma). After a 30 min incubation, fluorescence readings were taken to determine the 50% inhibitory concentration (IC50) of parasite growth. The IC50 values were determined using concentration–response curves generated in GraphPad 8 software. Additionally, the resistance index was calculated by comparing IC50 values obtained for the sensitive 3D7 strain with those of the resistant strains.
# P. falciparum 7G8 strain = test: SYBR Green growth assay, asexual blood stages, 7G8 strain; assay type: cell-based, Plasmodium falciparum; details: Plasmodium falciparum; 7G8 strain, 72 h; read-out: IC50
# Method: as §4, §2, §5
# [3] = system: P. falciparum SB1-A6 strain; test: SYBR Green growth assay, asexual blood stages, SB1-A6 strain; assay type: cell-based, Plasmodium falciparum; details: Plasmodium falciparum, 72 h
# Method: as §4, §2, §5
# [4] = system: P. falciparum ATQ_R1 strain; test: SYBR Green growth assay, asexual blood stages, ATQ_R1 strain; assay type: cell-based, Plasmodium falciparum; details: Plasmodium falciparum, 72 h
# Method: as §4, §2, §5
# P. vivax ookinetes = test: Ex vivo P. vivax ookinete formation assay with patient isolates; assay type: cell-based, Plasmodium vivax; details: Plasmodium vivax, 24 h, 10 μM, n = 6 patients, read-out: P. vivax ookinete formation inhibition (median)
# Method: Participants were recruited from patients diagnosed with P. vivax malaria via Giemsa-stained blood smears at CEPEM in Porto Velho, Rondônia, Brazil (#28176720.9.0000.0011). Criteria included: P. vivax parasitemia >2000 parasites/μL, age 18–85, no severe malaria, no concomitant diseases, nonpregnant, and consent to study procedures. Approximately 10 mL of venous blood was collected into heparin-coated vials, maintained at 37 °C, and transported to PIVEM for DMFA. Malaria treatment followed Brazilian Ministry of Health guidelines and was unaffected by study participation. […] Erythrocytes were washed with incomplete RPMI-1640 medium by centrifugation at 1500 rpm for 10 min to remove leukocytes. […] The sample was centrifuged once at 450 g for 15 min without a brake. After centrifugation, the pellet remaining at the interface was collected and washed twice at 2000 g for 5 min. […] The parasites were incubated for 24 h at a temperature of 21–24 °C. After this period, the activity of the compounds was determined by microscopy, counting 100 fields to determine the parasitemia per μL in each sample, and counting the mature and immature ookinetes. […] Red blood cells were then washed with incomplete RPMI-1640 medium through centrifugation at 1500 rpm for 10 min to remove leukocytes. […] The sample was centrifuged once at 2000 rpm for 15 min without brake. After centrifugation, the remaining pellet at the interface was collected and washed twice at 2000 rpm for 5 min. […] Parasites were incubated for 24 h at a temperature of 21–24 °C. After this period, compound activity was determined by microscopy counting in 100 fields to determine parasitemia per μL in each sample.
# HepG2 cells = test: Mitochondrial toxicity, HepG2 cells cultured in glucose or galactose (resazurin); assay type: cell-based; details: HepG2 under either condition (glucose or galactose), 3.125–50 μM, 24 h
# Method: To evaluate mitochondrial toxicity, HepG2 cells were cultured in RPMI-1640 medium under two metabolic conditions: one group was maintained in standard RPMI supplemented with 2 g/L glucose (glucose condition), while the second group was gradually adapted to rely on galactose as the primary energy source. For this adaptation, glucose levels were reduced by 20% every 2 days until reaching a final concentration of 20% of the original glucose amount. On the day of the assay, the […] cells were cultured in glucose-free RPMI medium supplemented with 10 mM galactose. When cells reached 80% confluence, they were detached using 2 mL of trypsin-EDTA solution (0.2 g of EDTA) for 5 min at 37 °C, then resuspended in fresh medium and centrifuged at 100 × g for 1 min. After centrifugation, cells were counted using a Neubauer chamber and seeded at […] per well in 96-well plates containing 180 μL of culture medium. Plates were incubated at 37 °C with 5% CO2 for 12–16 h to allow for cell adhesion. […] After treatment, 40 μL of a 0.15 mg/mL resazurin solution (RSZ) was added to each well and incubated for an additional 5 h. RSZ is a nontoxic, cell-permeable blue dye that is reduced by metabolically active cells to highly fluorescent pink resorufin. Fluorescence was measured using a fluorimeter with excitation/emission at 560/590 nm. Cell viability was calculated relative to untreated controls (set at 100%), determined using GraphPad Prism 8.
# 164/GFP = details: strain 164/GFP; cited from earlier work
# TM90C2B = details: strain TM90C2B; cited from earlier work
# [5] = system: P. falciparum oocysts in An. freeborni; set-up: method as in Sáenz et al.; details: early stage gametocyte treatments; ref Sáenz et al.; cited from earlier work
# [6] = system: P. falciparum salivary gland infections in mosquitoes; set-up: method as in Sáenz et al.; details: drug-treated blood at 1 μM, compared to untreated control; ref Sáenz et al.; cited from earlier work
# [7] = system: P. falciparum hepatic stages; details: cited from earlier work
smiles,measurement,setting,value
"O=C1C(O)=C([C@H]2CC[C@H](c3ccc(Cl)cc3)CC2)C(=O)c2ccccc21 [Atovaquone, atovaquone, reference compound]",IC50,[1],1 ± 0.4 nM
same,IC50,P. falciparum HB3 strain,0.7 ± 0.4 nM
same,IC50,[2],9 ± 0.8 nM
same,IC50,P. falciparum 7G8 strain,6 ± 4 nM
same,IC50,[3],> 10000 nM
same,IC50,[4],> 10000 nM
same,inhibition at 10 µM,P. vivax ookinetes,97%
same,cell survival,HepG2 cells,≥ 60%
CCCCCCCCCCOc1cc2c(O)c(C(=O)OCC)cnc2cc1OCC [Decoquinate],IC50,164/GFP,10 nM
CCCCCCCc1c(C)[nH]c2cc(F)cc(F)c2c1=O [ELQ-121],IC50,TM90C2B,1.7 nM
CCCCc1cc2c(=O)c(C(=O)OCC)c[nH]c2cc1OCCOc1ccccc1 [ICI 56.780],reduction in oocyst numbers,[5],100%
same,reduction of salivary gland infections,[6],80%
N[C@@H]1[C@H]2CN(c3nc4c(cc3F)c(=O)c(C(=O)O)cn4-c3ccc(F)cc3F)C[C@@H]12 [trovafloxacin],IC50 P. falciparum hepatic stages,[7],21.6 ± 2.6 µg/mL
